Like-named read-outs stand apart in the source and are kept apart here.
Tests used:
[1] = system: PIK3CA-mutant breast cancer cell lines; assay: proliferation and apoptosis of PIK3CA-mutant breast cancer cell lines; type: cell-based; conditions: nonclinical studies
[2] = system: human breast xenograft models harboring PIK3CA mutations; assay: tumor growth in human breast xenograft models harboring PIK3CA mutations; type: in vivo; conditions: nonclinical studies
pAKT, pPRAS40, and pS6 = assay: downstream PI3K-pathway markers; type: cell-based; conditions: nonclinical studies
[3] = system: Class I PI3K beta, delta, and gamma isoforms; conditions: selectivity of alpha over beta; cited from earlier work
[4] = system: tumor cells bearing mutant PI3K; conditions: mutant versus WT PI3K cells; cited from earlier work
[5] = in combination with letrozole; cited from earlier work
[6] = in combination with fulvestrant; cited from earlier work

Row | SMILES | proliferation and apoptosis of PIK3CA-mutant breast cancer cell lines [1] | tumor growth in human breast xenograft models harboring PIK3CA mutations [2] | downstream PI3K-pathway markers, including pAKT, pPRAS40, and pS6 (pAKT, pPRAS40, and pS6) | less potent biochemical inhibition for other Class I PI3K beta, delta, and gamma isoforms (versus PI3K alpha) [3] [fold] | potency in mutant PI3K tumor cells over wild type (WT) PI3K cells [4] | patients who required ≥1 dose reduction of palbociclib [5] [%] | patients who required ≥1 dose reduction of palbociclib [6] [%]
1 | C[C@H](Nc1ccc2c(c1)OCCn1cc(N3C(=O)OC[C@H]3C(F)F)nc1-2)C(N)=O [GDC-0077, (S)-2-((2-((S)-4-(difluoromethyl)-2-oxooxazolidin-3-yl)-5,6-dihydrobenzo[f]imidazo[1,2-d][1,4]oxazepin-9-yl)amino)propanamide] | inhibits proliferation and induces apoptosis | inhibits tumor growth | reduces downstream PI3K-pathway markers | > 300 | increased potency in tumor cells bearing mutant PI3K over wild type (WT) PI3K cells | – | –
2 | CC(=O)c1c(C)c2cnc(Nc3ccc(N4CCNCC4)cn3)nc2n(C2CCCC2)c1=O [palbociclib, 6-acetyl-8-cyclopentyl-5-methyl-2-(5-(piperazin-1-yl)pyridin-2-ylamino)pyrido[2,3-d]pyrimidin-7(8H)-one] | – | – | – | – | – | 36 | 34

Reference: patent publication US20250127796A1, “METHODS OF TREATING CANCER WITH PI3K INHIBITOR, GDC-0077” (Genentech, Inc., priority 2018, published 2025)
